Data published in US20240199624A1, “COMPOUNDS, COMPOSITIONS, AND METHODS” (CHDI Foundation, Inc., priority 2022, published 2024).

Columns and labels:
Format in all cases: biochemical
human MutSbeta [1] = target: T1, human MutSbeta (Homo sapiens, UniProt P20585+P43246); experiment: ADP Glo assay 2.2; details: as 2.1 but buffer with 2 mM GSH
T1 construct: Msh2(1-934), Gene ID NP_000242.1; Msh3(1-1137), Gene ID J04810.1
Protocol: (§1) ADP Glo assay 2.1: Enzyme human MutSbeta (Msh2(1-934), Gene ID NP_000242.1, Msh3(1-1137), Gene ID J04810.1) with 22 bp biotin-labeled DNA containing a GT-mismatch (purchased from Curia Global, TOP 5′-[…]-3′; BOT 3′-AGTAGCTAGGC - - - CGAAGTCTACC-5′-Biotin) was pre-incubated in assay buffer (25 mM HEPES pH=7.5, 150 mM KCl, 5 mM MgCl2, 5 mM GSH, 0.1% Pluronic F-127, 0.2% Ovalbumin) to allow formation of the enzyme-DNA complex. Plates with spotted compounds in serial dilutions in DMSO (80 nL) were filled with ATP (2 μL, 10 μM final concentration) followed by an incubation of 30 min at RT. Then, enzyme was added (2 μL, 7 nM final concentration) and the reaction was allowed to proceed for 60 min at 37° C. After the ATPase reaction, the commercially available “ADP-Glo Reagent” was added (incubate 40 min at RT) to deplete remaining ATP via the activity of […]. Subsequently, the commercially available “Kinase Detection Reagent” converted ADP to ATP via the activity of PEP and Pyruvate kinase. The ATP was then converted into light by Ultra-Glo Luciferase. The obtained luminescence was proportional to the ADP concentration generated during the initial ATPase reaction. The luminescence signal was measured with an Envision reader, raw data were analyzed towards controls (full reaction=0% inhibition; no reaction in absence of enzyme=100% inhibition) and IC50 curves were analyzed with the inhouse software Aplus.
ADP Glo assay 2.2: A similar protocol was used as in the ADP Glo Assay 2.1 above, except the following assay buffer was used: 25 mM HEPES pH=7.5, 150 mM KCl, 5 mM MgCl2, 2 mM GSH, 0.1% Pluronic F-127, 0.2% Ovalbumin. It is contemplated the solubility of the compounds and/or varying test occasions and/or assay conditions may account for variability of assay results.

human MutSbeta [2] = target: T1, human MutSbeta; experiment: P33 SPA 1.1
Protocol: P33 SPA: Enzyme human MutSbeta (Msh2(1-934), Gene ID NP_000242.1, Msh3(1-1137), Gene ID J04810.1) and 22 bp biotin-labeled DNA containing a GT-mismatch (purchased from Curia Global, TOP 5′-[…]-3′; BOT 3′-AGTAGCTAGGC - - - CGAAGTCTACC-5′-Biotin) were pre-incubated at equimolar concentration for 15 min at room temperature (“RT”) in assay buffer (25 mM HEPES pH=7.5, 150 mM KCl, 2 mM MgCl2, 2 mM GSH, 0.01% Tween-20). ATP (10 μL, 2× final concentration of γ-[^33P]-ATP (final 0.1 nM; Hartmann Analytic, FF-301) and cold ATP (final 2 μM)) was added to compounds (400 nL spotted as concentration response in 100% DMSO into wells of an OptiPlate) and pre-incubated for 30 min at RT. Then, enzyme with DNA was added (10 μL, 2× final concentration of 7 nM) and incubated for 60 min at 37° C. in a total volume of 20 μL per well. Decay of [^33P] with a half-life of 25.4 days was corrected by increasing the concentration of the labelled nucleotide with the appropriate factor; all steps with radioactive ATP were conducted behind appropriate shielding. Then, 20 μL of a 1:2 mix of ammonium molybdate (20 mg/mL Ammonium molybdate in 2.4 M HCl) and SPA beads (ProteinA SPA beads from Perkin Elmer Cat #RPNQ0019 at 7.5 mg/mL+1% azide) was added per well and incubated at RT for 2 min. Then, 40 μL of 7 M CsCl and 0.1 M citrate was added per well and incubated for 20 h at RT before measuring on the MicroBeta (top read mode, 1 min per well). For full plate processing, all reagents were transferred with a pipettor (Selma, CyBio) apart from the final reagent (CsCl+citrate) which was added with a dispenser (MultiFlo, BioTek). Data analysis during assay development was done with Prism GraphPad.
P33 SPA 11: For the SPA 1.1 assay, the addition of reagents was reversed, i.e. enzyme was first added to the compounds and pre-incubated followed by ATP addition; thus, the assay was aligned with ADP Glo 1.1 reagent addition order. The assay was repeated under similar conditions, and the results are shown below in Table 5B. It is contemplated the solubility of the compounds and/or varying test occasions may account for variability of assay results.

human MutSbeta [3] = target: T1, human MutSbeta; experiment: ADP Glo assay 2.1; details: 10 μM ATP, 7 nM enzyme; buffer with 5 mM GSH, 0.2% Ovalbumin
Protocol: as §1

[4] = Table 5A, enzyme first added to compounds, then ATP
[5] = Table 5B, assay repeated under similar conditions

T1 sequence (P43246 whole entry): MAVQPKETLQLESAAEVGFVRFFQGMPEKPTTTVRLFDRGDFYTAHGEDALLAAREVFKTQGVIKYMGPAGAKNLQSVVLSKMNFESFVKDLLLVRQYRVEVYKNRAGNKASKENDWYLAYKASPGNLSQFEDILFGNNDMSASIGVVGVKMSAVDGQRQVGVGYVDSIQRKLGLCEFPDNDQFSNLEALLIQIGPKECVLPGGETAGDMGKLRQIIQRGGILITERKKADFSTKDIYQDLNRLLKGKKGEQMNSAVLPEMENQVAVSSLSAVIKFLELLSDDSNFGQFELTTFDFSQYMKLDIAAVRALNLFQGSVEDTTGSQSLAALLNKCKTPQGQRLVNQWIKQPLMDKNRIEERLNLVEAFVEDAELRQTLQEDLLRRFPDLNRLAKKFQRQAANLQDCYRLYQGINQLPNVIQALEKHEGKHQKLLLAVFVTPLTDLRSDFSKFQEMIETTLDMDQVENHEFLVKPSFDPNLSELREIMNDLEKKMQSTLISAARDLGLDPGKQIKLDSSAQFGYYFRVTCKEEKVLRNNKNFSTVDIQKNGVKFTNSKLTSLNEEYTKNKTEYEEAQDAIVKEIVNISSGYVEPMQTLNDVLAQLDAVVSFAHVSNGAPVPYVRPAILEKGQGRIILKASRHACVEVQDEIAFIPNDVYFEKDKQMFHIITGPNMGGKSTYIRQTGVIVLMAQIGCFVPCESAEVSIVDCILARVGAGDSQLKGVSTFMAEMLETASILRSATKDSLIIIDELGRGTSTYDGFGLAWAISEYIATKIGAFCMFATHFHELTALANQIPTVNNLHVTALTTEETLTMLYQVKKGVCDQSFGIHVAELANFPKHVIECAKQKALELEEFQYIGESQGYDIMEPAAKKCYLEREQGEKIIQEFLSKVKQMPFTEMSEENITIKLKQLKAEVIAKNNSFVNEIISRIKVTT
T1 sequence (P20585 whole entry): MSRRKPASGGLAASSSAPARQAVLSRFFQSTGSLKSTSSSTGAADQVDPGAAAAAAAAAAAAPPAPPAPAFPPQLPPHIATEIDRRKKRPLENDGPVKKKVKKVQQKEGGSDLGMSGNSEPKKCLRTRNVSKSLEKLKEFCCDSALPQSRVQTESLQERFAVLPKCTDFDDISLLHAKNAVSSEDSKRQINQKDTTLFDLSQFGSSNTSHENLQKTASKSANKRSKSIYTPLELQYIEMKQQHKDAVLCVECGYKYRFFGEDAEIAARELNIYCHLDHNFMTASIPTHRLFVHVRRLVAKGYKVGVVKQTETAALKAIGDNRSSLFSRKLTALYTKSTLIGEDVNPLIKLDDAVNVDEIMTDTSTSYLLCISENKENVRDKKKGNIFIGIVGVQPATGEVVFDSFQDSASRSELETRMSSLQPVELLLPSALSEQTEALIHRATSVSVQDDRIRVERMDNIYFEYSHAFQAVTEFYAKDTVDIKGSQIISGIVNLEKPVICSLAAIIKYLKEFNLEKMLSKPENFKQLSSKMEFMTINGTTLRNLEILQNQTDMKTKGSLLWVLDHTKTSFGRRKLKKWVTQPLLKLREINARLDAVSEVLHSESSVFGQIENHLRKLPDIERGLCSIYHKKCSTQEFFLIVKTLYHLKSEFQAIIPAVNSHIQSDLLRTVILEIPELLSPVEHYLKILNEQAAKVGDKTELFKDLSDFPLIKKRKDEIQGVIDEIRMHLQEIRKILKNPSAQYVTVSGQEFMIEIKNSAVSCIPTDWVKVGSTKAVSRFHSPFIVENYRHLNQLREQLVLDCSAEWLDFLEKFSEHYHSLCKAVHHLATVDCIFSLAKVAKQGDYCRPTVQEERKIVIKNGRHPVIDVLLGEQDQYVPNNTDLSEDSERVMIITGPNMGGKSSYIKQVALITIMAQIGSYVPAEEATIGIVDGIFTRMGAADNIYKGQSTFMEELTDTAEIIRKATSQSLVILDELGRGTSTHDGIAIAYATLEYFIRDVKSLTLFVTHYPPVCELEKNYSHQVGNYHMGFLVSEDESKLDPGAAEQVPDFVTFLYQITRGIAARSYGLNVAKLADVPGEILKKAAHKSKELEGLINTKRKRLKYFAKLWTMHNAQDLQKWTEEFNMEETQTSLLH

Compound | IC50 (human MutSbeta [1]) [µM] | IC50 (human MutSbeta [2]; [4]) [µM] | IC50 (human MutSbeta [2]; [5]) [µM] | IC50 (human MutSbeta [3]) [µM]
CC(=O)Nc1cccc(CNc2nc(N3CCN(C)CC3)nc3nccnc23)c1 [Compound 46] | 53 | 104 | 120 | 38
COc1ccc(Nc2nc(N3CCN(C)CC3)nc3nccnc23)cc1Cl [Compound 30] | 25 | 23 | 28 | 23
CN1CCN(c2nc(Nc3cccc(F)c3)c3nccnc3n2)CC1 [Compound 34] |  | 43 | 90 | ≥ 200
Cc1cnc2nc(N3CCN(C)CC3)nc(Nc3ccc(C)c(C)c3)c2n1 [Compound 38, N-(3,4-dimethylphenyl)-6-methyl-2-(4-methylpiperazin-1-yl)pteridin-4-amine] | 10 | 19 | 9.5 | 13
CCC(=O)Nc1cccc(Nc2nc(N3CCCN(C)CC3)nc3nccnc23)c1 [Compound 35] |  | 80 | 55 | ≥ 200
CCC(=O)Nc1cccc(Nc2nc(N3CCN(C)CC3)nc3nccnc23)c1 [Compound 37] | 97 | 34 | 119 | 71
CN1CCN(c2nc(NCc3cccc(S(C)(=O)=O)c3)c3nccnc3n2)CC1 [Compound 42] | 119 |  | 108 | ≥ 200
CN1CCN(c2nc(Nc3cccc(C4CC4C(=O)O)c3)c3nccnc3n2)CC1 (single isomer, unassigned) [Compound 47] | 38 | 59 | 56 | 55
Cc1cccc(Nc2nc(N3CCN(C)CC3)nc3nccnc23)c1C [Compound 39, N-(2,3-dimethylphenyl)-2-(4-methylpiperazin-1-yl)pteridin-4-amine] |  | 158 | 36 | ≥ 200
Cc1ccc(Nc2nc(N3CCN(C(C)C)CC3)nc3nccnc23)cc1C [Compound 24] | 60 | 24 | 25 | 37
Cc1cc(Nc2nc(N3CCN(C)CC3)nc3nccnc23)ccc1C(N)=O [Compound 41] | 50 |  | 50 | 28
CN1CCN(c2nc(Nc3cccc(Cl)c3)c3nccnc3n2)CC1 [Compound 33, N-(3-chlorophenyl)-2-(4-methylpiperazin-1-yl)pteridin-4-amine] | 43 | 44 | 34 | 35
Cc1cc(CNc2nc(N3CCCN(C)CC3)nc3nccnc23)ccc1F [Compound 29] |  | 120 | 61 | ≥ 200
Cc1ccc(Nc2nc(N3CCCN(C)CC3)nc3nccnc23)cc1C [Compound 23, N-(3,4-dimethylphenyl)-2-(4-methyl-1,4-diazepan-1-yl)pteridin-4-amine] |  | 71 | 64 | ≥ 200
Cc1ccc(Oc2nc(N3CCN(C)CC3)nc3nccnc23)cc1C [Compound 32] |  | 118 | 47 | ≥ 200
Cc1ccc(Nc2nc(N3CCN(C)CC3)nc3nccnc23)cc1C(N)=O [Compound 45] | 76 | 38 | 84 | 55
CN1CCN(c2nc(Nc3cccc(C4CC4C(=O)O)c3)c3nccnc3n2)CC1 (single isomer, unassigned) [Compound 48] | 27 | 12 | 9 | 13
CN1CCN(c2nc(NCc3cccc(S(N)(=O)=O)c3)c3nccnc3n2)CC1 [Compound 44] | 88 |  | 71 | 
Cc1ccc(Nc2nc(N3CCN(C)CC3)nc3nccnc23)cc1S(N)(=O)=O [Compound 43] | 106 |  | 59 | 
Cc1ccc(CNc2nc(N3CCCN(C)CC3)nc3nccnc23)cc1C [Compound 28] | 82 | 55 | 131 | 38
Cc1cc(CNc2nc(N3CCN(C(C)C)CC3)nc3nccnc23)ccc1F [Compound 26] | 95 | 59 | 75 | 36
COc1cccc(Nc2nc(N3CCN(C)CC3)nc3nccnc23)c1 [Compound 40] | 34 | 43 | 61 | 16
Cc1cc(CNc2nc(N3CCN(C)CC3)nc3nccnc23)ccc1F [Compound 25] | 35 | 20 | 24 | 29
Cc1ccc(CNc2nc(N3CCN(C)CC3)nc3nccnc23)cc1C [Compound 27] | 26 | 28 | 18 | 22
Cc1ccc(Nc2nc(N3CCN(C)[C@@H](C)C3)nc3nccnc23)cc1C [Compound 31] | 41 | 25 | 45 | 19
